Test system: PBMC of RRMS patients
Assay: Gene expression microarray analysis (HG-U133A-2) of PBMC from RRMS patients treated with LAQ, ancillary study to ALLEGRO
Type: in vivo, human
Conditions: for Fold-Change (1.0 vs. 0.0): one month of treatment
Text: The goal of this ancillary study was to characterize gene expression changes and corresponding biological mechanisms induced in PBMC of RRMS patients by LAQ treatment. According to ALLEGRO clinical trial inclusion criteria, 25 patients were randomly assigned to receive LAQ (n=13, age 38.8±2.3 years, female/male ratio: 8/5) or placebo (n=12, age 37.2±3.4 years, female/male ratio: 8/4).
Peripheral blood samples were obtained from RRMS patients at baseline before start of LAQ treatment or placebo, after 0, 1, 6 and 24 month of treatment (visit 0, 1, 6 and 7 according to ALLEGRO clinical trial protocol correspondently) for gene microarray analysis.
Briefly, 1) Peripheral blood mononuclear cells (PBMC) were obtained from RRMS patients that participated in ALLEGRO and were treated daily with 0.6 mg LAQ or placebo. PBMC were subjected for gene expression analysis (HU-133A-2-Affymatrix arrays) at baseline and at 1 and 6 months of LAQ treatment; 2) Data was analyzed by Partek Genomics Solution software. Most informative genes (MIGs) were defined as those that differentiated between groups with p<0.01. Gene functional annotation, enrichment and pathway analysis were performed by Ingenuity software. For each time point, genes that changed in placebo group were excluded from further analysis; and 3) Verification of LAQ related mechanism was performed by Western blot.
PBMC were extracted from 15 ml peripheral blood, separated by Ficoll-Hypaque gradient. Total RNA was extracted using both Trizol (Invitrogen, USA) and Phase-Lock-Gel columns (Eppendorf, Germany) including a DNase digestion step. RNA integrity was assessed by RNA Experion automated electrophoresis system (Bio-Rad Laboratories, Hercules, Calif.).
Probe synthesis using 3 μg total RNA, hybridization, detection, and scanning was performed according to the standard Affymetrix, Inc. USA protocols; cDNA was synthesized using the Two-Cycle cDNA Synthesis Kit (Affymetrix, Inc., USA), and in-vitro transcription performed with the GeneChip IVT Labeling Kit (Affymetrix, Inc., USA). The biotin-labeled IVT-RNA was hybridized to HG-U133A-2 arrays containing 18,400 gene transcripts, each corresponding to 14,500 well-annotated human genes, washed in a GeneChip Fluidics Station 450 (Hewlett Packard, USA, GeneArray-™ scanner G2500A) and scanned according to the manufacturer's protocol (Affymetrix, Inc., USA).
Data analysis was performed on Partek Genomics Solution software (www.partek.com; Partek Incorporated, St. Louis, Mo.). Expression values were computed from raw CEL files by applying the Robust Multi-Chip Average (RMA) background correction algorithm. RMA correction included: 1) values background correction; 2) quintile normalization; 3) log 2 transformation; and 4) median polish summarization. The ANOVA, Repeated Measures and correlation analysis implicated in Partek software ware applied to evaluate LAQ effects. Most informative genes MIGs were defined as those that differentiated between experimental groups with p<0.01. All p-values were calculated for False Discovery Rate (FDR) multiple test correction at p=0.05.
Additionally, significance of individual genes was tested by parametric T-test and non parametric Mann-Whitney test using Bootstrapping approach based on repeated permutations of the data with 5% FDR for multiple testing.
Gene functional annotation, enrichment, and pathway analyses to identify the leading biological pathways that operated under LAQ treatment were performed by Ingenuity Pathways Analysis software (www.ingenuity.com).
ANOVA analysis was used to compare PBMC gene expression after 1, 6 or 24 month of LAQ treatment with baseline gene expression.
For each time point inventors performed analysis source of variation in dataset. (FIG. 1). Age, gender and batch effects were considered as confounders regarding LAQ or Placebo related changes. For each time point genes associated with Placebo effect were evaluated and excluded from further analysis. […]

CCN(C(=O)c1c(O)c2c(Cl)cccc2n(C)c1=O)c1ccccc1 [LAQ, 5-chloro-N-ethyl-4-hydroxy-1-methyl-2-oxo-N-phenyl-1,2-dihydroquinoline-3-carboxamide]
Fold-Change (1.0 vs. 0.0) (LYVE1 220037_s_at): −1.139 | Fold-Change (1.0 vs. 0.0) (MARCH6 201736_s_at): −1.139 | Fold-Change (1.0 vs. 0.0) (MAX 210734_x_at): −1.284 | Fold-Change (1.0 vs. 0.0) (MFAP3L 205442_at): −1.854 | Fold-Change (1.0 vs. 0.0) (MFAP3L 210493_s_at): −1.464 | Fold-Change (1.0 vs. 0.0) (MYL9 201058_s_at): −1.74 | Fold-Change (1.0 vs. 0.0) (MYST3 202423_at): −1.08 | Fold-Change (1.0 vs. 0.0) (NAT8B 206964_at): −1.746 | Fold-Change (1.0 vs. 0.0) (NENF 218407_x_at): −1.141 | Fold-Change (1.0 vs. 0.0) (NRGN 204081_at): −1.604 | Fold-Change (1.0 vs. 0.0) (PDE5A 206757_at): −1.213 | Fold-Change (1.0 vs. 0.0) (PDGFA 205463_s_at): −1.536 | Fold-Change (1.0 vs. 0.0) (PGRMC1 201120_s_at): −1.432 | Fold-Change (1.0 vs. 0.0) (PGRMC1 201121_s_at): −1.443 | Fold-Change (1.0 vs. 0.0) (POPDC3 219926_at): −1.1575 | Fold-Change (1.0 vs. 0.0) (POU1F1 207846_at): −1.091 | Fold-Change (1.0 vs. 0.0) (PPM1A 203966_s_at): −1.182 | Fold-Change (1.0 vs. 0.0) (PRKG1 207119_at): −1.185 | Fold-Change (1.0 vs. 0.0) (PRPF4B 202127_at): −1.135 | Fold-Change (1.0 vs. 0.0) (PSD3 218613_at): −1.258 | Fold-Change (1.0 vs. 0.0) (PTCRA 211837_s_at): −1.274 | Fold-Change (1.0 vs. 0.0) (PTCRA 215492_x_at): −1.526 | Fold-Change (1.0 vs. 0.0) (PTGIS 210702_s_at): −1.095 | Fold-Change (1.0 vs. 0.0) (RBM25 212031_at): −1.105 | Fold-Change (1.0 vs. 0.0) (RET 211421_s_at): −1.221 | Fold-Change (1.0 vs. 0.0) (SDPR 218711_s_at): −1.662 | Fold-Change (1.0 vs. 0.0) (SELP 206049_at): −1.642 | Fold-Change (1.0 vs. 0.0) (SEPT6 214298_x_at): −1.133 | Fold-Change (1.0 vs. 0.0) (SF3B1 201071_x_at): −1.0879 | Fold-Change (1.0 vs. 0.0) (SLC37A1 218928_s_at): −1.126 | Fold-Change (1.0 vs. 0.0) (SPARC 200665_s_at): −1.776 | Fold-Change (1.0 vs. 0.0) (SPARC 212667_at): −1.73 | Fold-Change (1.0 vs. 0.0) (SRRT 201680_x_at): −1.118 | Fold-Change (1.0 vs. 0.0) (TAL1 206283_s_at): −1.752 | Fold-Change (1.0 vs. 0.0) (TAS2R4 221392_at): −1.203 | Fold-Change (1.0 vs. 0.0) (TBXA2R 336_at): −1.433 | Fold-Change (1.0 vs. 0.0) (TGFB1 203085_s_at): −1.24 | Fold-Change (1.0 vs. 0.0) (TMED10 200929_at): −1.099 | Fold-Change (1.0 vs. 0.0) (TNFSF4 207426_s_at): −1.7061 | Fold-Change (1.0 vs. 0.0) (TPM1 210986_s_at): −1.555 | Fold-Change (1.0 vs. 0.0) (TPM1 210987_x_at): −1.447 | Fold-Change (1.0 vs. 0.0) (TPTE 220205_at): −1.158 | Fold-Change (1.0 vs. 0.0) (TRIM58 215047_at): −1.777 | Fold-Change (1.0 vs. 0.0) (TUBB2B 214023_x_at): −1.159 | Fold-Change (1.0 vs. 0.0) (VCL 200931_s_at): −1.406 | Fold-Change (1.0 vs. 0.0) (WASF3 204042_at): −1.606 | Fold-Change (1.0 vs. 0.0) (WDR48 222157_s_at): −1.103 | Fold-Change (1.0 vs. 0.0) (XK 206698_at): −1.88 | Fold-Change (1.0 vs. 0.0) (XYLT1 213725_x_at): 1.314 | Fold-Change (1.0 vs. 0.0) (ZNF415 205514_at): −1.154 | p, differential expression of cellular movement and migration (after one month of LAQ treatment): 3.49*10^−4 | genes (#), Caveolar mediated endocytosis (after one month of treatment): 8 | genes (#), Cellular movement: Adhesion & migration of phagocytes (after one month of treatment): 9 | genes (#), Chemotaxis of neutrophils (after one month of treatment): 4 | genes (#), Clathrin mediated endocytosis (after one month of treatment): 12 | genes (#), Hematological system: Activation of blood platelets (after one month of treatment): 13 | genes (#), Hematological system: Aggregation of blood cells (after one month of treatment): 19 | genes (#), Hematological system: Aggregation of blood platelets (after one month of treatment): 18 | genes (#), Hematological system: Coagulation of blood (after one month of treatment): 14 | genes (#), Inflammatory response: Adhesion of phagocytes (after one month of treatment): 9 | genes (#), Inflammatory response: TGFb signaling (after one month of treatment): 10 | genes (#), Transmigration of leukocytes (after one month of treatment): 8

Reference: patent US20160201132A1, “GENE EXPRESSION BIOMARKERS OF LAQUINIMOD RESPONSIVENESS” (Teva Pharmaceutical Industries Ltd., priority 2013, published 2016)
